What was measured:
[1] = test system: patients suffering from migraine; assay: Pilot double-blind placebo-controlled crossover trial, prophylactic effect in migraine; assay type: in vivo, human
Experimental: A study in which the effects of the angiotensin II type 1 receptor antagonist candesartan cilexetil (Atacand®) is compared to that of placebo, was carried out to explore the feasability of giving candesartan cilexetil to patients suffering from, or susceptible to, vascular headache conditions, and especially migraine.
The pilot study was a double-blind placebo-controlled crossover trial on the prophylactic effect of the AT II antagonist candesartan cilexetil performed in patients suffering from migraine.
The study provides preliminary data on the feasibility of administering candesartan cilexetil for preventing migraine. It also provides preliminary data on useful concentrations of candesartan cilexetil in this use.

[2] = test system: patients having mild-to-moderate hypertension; details: hypertensive patients, versus placebo; cited from earlier work

Compound	relief of symptoms (migraine) ([1]; one patient with a medical history of migraine, treating themself with Atacand 16 mg, relief subjectively noted)	relief of symptoms (migraine) ([1]; the other patient with a medical history of migraine, relief subjectively noted after treatment with Atacand)	incidence of headache [2]
CCOc1nc2cccc(C(=O)OC(C)OC(=O)OC3CCCCC3)c2n1Cc1ccc(-c2ccccc2-c2nn[nH]n2)cc1 (stereo not drawn) [candesartan cilexetil]	significant relief of symptoms	significant relief of symptoms	
CCCCC1=NC2(CCCC2)C(=O)N1Cc1ccc(-c2ccccc2-c2nnn[nH]2)cc1 [irbesartan]			significant reduction

Reference: patent publication US7872035B2, “Angiotensin II antagonists” (AstraZeneca AB, priority 2001, dated 2011)
